Patent US11613525B2 (CTXT PTY LIMITED, priority 2018, dated 2023)
Where two headings read alike, the source gives them in different places. Values belong to the compound of their own block, whether it stands above or below them.

Columns and labels:
human STING (HAQ) = human STING (HAQ) (Homo sapiens, UniProt Q86WV6, G230A/H232R/R293Q); assay: biochemical; type: binding; settings: for ΔTm at 100 µM: read-out: DSF huSTING (HAQ) ΔTm (° C.); for DSF huSTING (HAQ) ΔTm (° C.): 1 μM protein, compound at 100 μM
Sequence of human STING (HAQ) (Q86WV6 whole entry G230A/H232R/R293Q, looked up): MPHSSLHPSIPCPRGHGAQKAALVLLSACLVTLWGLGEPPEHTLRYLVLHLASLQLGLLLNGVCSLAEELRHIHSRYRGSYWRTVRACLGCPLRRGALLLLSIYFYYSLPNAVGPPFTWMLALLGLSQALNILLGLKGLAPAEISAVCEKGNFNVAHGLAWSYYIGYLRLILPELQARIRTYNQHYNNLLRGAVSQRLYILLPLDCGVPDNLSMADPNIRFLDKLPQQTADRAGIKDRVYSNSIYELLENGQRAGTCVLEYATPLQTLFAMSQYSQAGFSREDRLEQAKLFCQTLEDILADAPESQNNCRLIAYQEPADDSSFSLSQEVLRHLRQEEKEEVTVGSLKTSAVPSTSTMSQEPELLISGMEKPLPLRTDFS
Description: (§1) DSF monitors thermal unfolding of protein in the presence of a fluorescent dye and is typically performed using a real-time PCR instrument. The temperature at which a protein unfolds is measured by an increase in the fluorescence of a dye with affinity for hydrophobic parts of the protein that are gradually exposed during unfolding. The fluorescence of the dye is quenched in aqueous environments, but when the dye associates with hydrophobic sites on the unfolded protein, its fluorescence increases. The fluorescence intensity is plotted as a function of the temperature, generating a sigmoidal curve that can be described by a two-state transition. The inflection point of the transition curve (Tm) is calculated using simple equations such as that of Boltzman.
(§2) Sealed plates were then placed into a Bio-Rad CFX96/C1000 thermocycler and FRET scanning mode (λ^excitation of 490 nm and reads at λ^emission of 570 nm) was used to measure fluorescence intensity. […] The melting point (Tm) obtained for STING protein alone was subtracted from Tm obtained for protein incubated with ligand to generate ΔTm values listed in the table below.
(§3) These additional compounds were tested as described above, however the protein concentration was 2 μM.

huSTING (WT) [1] = target: T1, huSTING (WT) (Homo sapiens (Human), UniProt Q86WV6, H232R); assay: Differential scanning fluorimetry (DSF), huSTING (WT); type: binding; settings: for ΔTm at 100 µM: read-out: DSF huSTING (WT) ΔTm (° C.); for DSF huSTING (WT) ΔTm (° C.): compound 100 μM, protein concentration 2 μM
Description: as §1, §2, §3
Target sequence in this assay (Q86WV6 other isoform, or with tags, fused parts or gaps, stated change not applied): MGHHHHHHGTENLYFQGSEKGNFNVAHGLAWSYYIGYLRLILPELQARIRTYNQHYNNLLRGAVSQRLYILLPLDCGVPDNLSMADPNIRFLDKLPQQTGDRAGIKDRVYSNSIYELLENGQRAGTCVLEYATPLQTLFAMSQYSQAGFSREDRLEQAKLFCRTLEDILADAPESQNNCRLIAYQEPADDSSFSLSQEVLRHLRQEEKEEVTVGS

huSTING (HAQ) = huSTING (HAQ) (Homo sapiens (Human), UniProt Q86WV6, G230A/H232R/R293Q/R71H); assay: THP-1 reporter cell line assay, THP-1 STING Lucia ISG cells; type: cell-based; settings: THP-1 STING Lucia ISG cells, read-out: Cellular EC50 huSTING (HAQ)
Sequence of huSTING (HAQ) (Q86WV6 whole entry R71H/G230A/H232R/R293Q): as the sequence (Q86WV6 whole entry G230A/H232R/R293Q, looked up) above, with R71H counted along it

huSTING (WT) [2] = target: T1, huSTING (WT); assay: THP-1 reporter cell line assay, THP-1-Dual KI-hSTING-R232 cells; type: cell-based; settings: read-out: Cellular EC50 huSTING (WT)
Target sequence in this assay (Q86WV6 whole entry H232R): as the sequence (Q86WV6 whole entry G230A/H232R/R293Q, looked up) above, with A230G, Q293R counted along it

[3] = 1 μM protein, compound at 100 μM
[4] = modified method, top concentration 40 μM, pin tool, EnVision

Compound: CCOC(=O)c1sc2ccc(Cl)cc2c1COc1ccc(C(N)=O)cc1 [Example 13, Ethyl 3-((4-carbamoylphenoxy)methyl)-5-chlorobenzo[b]thiophene-2-carboxylate]
- ΔTm at 100 µM (human STING (HAQ)): -0.15 °C
- ΔTm at 100 µM (huSTING (WT) [1]; [3]): -0.59 °C
- EC50 (huSTING (HAQ); 24 h, top concentration 50 μM): > 50 µM
- EC50 (huSTING (WT) [2]): > 50 µM

Compound: NC(=O)CNC(=O)c1sc2cccc(Cl)c2c1COc1c(F)cc(C(N)=O)cc1F [Example 148, N-(2-Amino-2-oxoethyl)-3-((4-carbamoyl-2,6-difluorophenoxy)methyl)-4-chlorobenzo[b]thiophene-2-carboxamide]
- DSF huSTING (WT) ΔTm (° C.) (huSTING (WT) [1]): −0.37 °C
- EC50 (huSTING (HAQ); [4]): 4.07 µM
- EC50 (huSTING (WT) [2]): > 40 µM

Compound: NC(=O)c1ccc(OCc2c(C(=O)O)sc3cccc(Cl)c23)cc1 [Example 8, 3-((4-Carbamoylphenoxy)methyl)-4-chlorobenzo[b]thiophene-2-carboxylic acid]
- DSF huSTING (HAQ) ΔTm (° C.) (human STING (HAQ)): 13.96 °C

Compound: NC(=O)c1ccc(OCc2c(C(=O)O)sc3cccc(Cl)c23)c(F)c1F [Example 67, 3-((4-Carbamoyl-2,3-difluorophenoxy)methyl)-4-chlorobenzo[b]thiophene-2-carboxylic acid]
- ΔTm at 100 µM (human STING (HAQ)): 11.1 °C
- ΔTm at 100 µM (huSTING (WT) [1]; [3]): 3.04 °C
- EC50 (huSTING (HAQ); 24 h, top concentration 50 μM): > 50 µM
- EC50 (huSTING (WT) [2]): > 50 µM

Compound: NC(=O)c1ccc(OCc2c(C(=O)O)sc3ccc(F)c(Cl)c23)cc1 [Example 84, 3-((4-Carbamoylphenoxy)methyl)-4-chloro-5-fluorobenzo[b]thiophene-2-carboxylic acid]
- ΔTm at 100 µM (human STING (HAQ)): 6.48 °C
- ΔTm at 100 µM (huSTING (WT) [1]; [3]): 0.18 °C
- EC50 (huSTING (HAQ); 24 h, top concentration 50 μM): > 50 µM
- EC50 (huSTING (WT) [2]): > 50 µM

Compound: CCOC(=O)c1sc2cccc(F)c2c1COc1c(F)cc(C(N)=O)cc1F [Example 2, Ethyl 3-((4-carbamoyl-2,6-difluorophenoxy)methyl)-4-fluorobenzo[b]thiophene-2-carboxylate]
- ΔTm at 100 µM (human STING (HAQ)): 1.44 °C
- EC50 (huSTING (HAQ); 24 h, top concentration 50 μM): 2.07 µM
- EC50 (huSTING (WT) [2]): > 50 µM

Compound: CCOC(=O)c1sc2cccc(Cl)c2c1COc1ccc(C(N)=O)cc1 [Example 7, Ethyl 3-((4-carbamoylphenoxy)methyl)-4-chlorobenzo[b]thiophene-2-carboxylate]
- ΔTm at 100 µM (human STING (HAQ)): 0.26 °C
- EC50 (huSTING (HAQ); 24 h, top concentration 50 μM): 0.705 µM
- EC50 (huSTING (WT) [2]): 8.94 µM

Compound: NC(=O)c1ccc(OCc2c(C(=O)NCCc3ccccc3)sc3cccc(Br)c23)cc1 [Example 167, 4-Bromo-3-((4-carbamoylphenoxy)methyl)-N-phenethylbenzo[b]thiophene-2-carboxamide]
- DSF huSTING (WT) ΔTm (° C.) (huSTING (WT) [1]): 2.51 °C
- EC50 (huSTING (HAQ); [4]): 23.2 µM
- EC50 (huSTING (WT) [2]): 25.6 µM

Compound: NC(=O)c1cc(F)c(OCc2c(C(=O)O)sc3cccc(Cl)c23)c(F)c1 [Example 69, 3-((4-Carbamoyl-2,6-difluorophenoxy)methyl)-4-chlorobenzo[b]thiophene-2-carboxylic acid]
- DSF huSTING (HAQ) ΔTm (° C.) (human STING (HAQ)): 22.08 °C
- ΔTm at 100 µM (huSTING (WT) [1]): 9.49 °C

Compound: CC(C)OC(=O)c1sc2cccc(F)c2c1COc1ccc(C(N)=O)cc1 [Example 4, Isopropyl 3-((4-carbamoylphenoxy)methyl)-4-fluorobenzo[b]thiophene-2-carboxylate]
- ΔTm at 100 µM (human STING (HAQ)): 0.13 °C
- EC50 (huSTING (HAQ); 24 h, top concentration 50 μM): 2.58 µM
- EC50 (huSTING (WT) [2]): > 50 µM

Compound: CC(=O)NCCOC(=O)c1sc2cccc(Cl)c2c1COc1c(F)cc(C(N)=O)cc1F [Example 159, 2-Acetamidoethyl 3-((4-carbamoyl-2,6-difluorophenoxy)methyl)-4-chlorobenzo[b]thiophene-2-carboxylate]
- DSF huSTING (WT) ΔTm (° C.) (huSTING (WT) [1]): −1.02 °C
- EC50 (huSTING (HAQ); [4]): 0.044 µM
- EC50 (huSTING (WT) [2]): 0.325 µM

Compound: COCCCOC(=O)c1sc2cccc(Cl)c2c1COc1c(F)cc(C(N)=O)cc1F [Example 162, 3-Methoxypropyl 3-((4-carbamoyl-2,6-difluorophenoxy)methyl)-4-chlorobenzo[b]thiophene-2-carboxylate]
- DSF huSTING (WT) ΔTm (° C.) (huSTING (WT) [1]): −1.01 °C
- EC50 (huSTING (HAQ); [4]): 0.041 µM
- EC50 (huSTING (WT) [2]): 0.302 µM

Compound: CC(C)[C@H](NC(=O)OC(C)(C)C)C(=O)OCOC(=O)c1sc2cccc(Cl)c2c1COc1c(F)cc(C(N)=O)cc1F [Example 133, (((tert-Butoxycarbonyl)-L-valyl)oxy)methyl 3-((4-carbamoyl-2,6-difluorophenoxy)methyl)-4-chlorobenzo[b]thiophene-2-carboxylate]
- EC50 (huSTING (HAQ); [4]): 0.12 µM
- EC50 (huSTING (WT) [2]): 0.806 µM

Next, values leading:

- DSF huSTING (WT) ΔTm (° C.) (huSTING (WT) [1]): −2.44 °C
- EC50 (huSTING (HAQ); [4]): 0.026 µM
- EC50 (huSTING (WT) [2]): 0.229 µM
Compound: CN(C)C(=O)COC(=O)c1sc2cccc(Cl)c2c1COc1c(F)cc(C(N)=O)cc1F [Example 127, 2-(Dimethylamino)-2-oxoethyl 3-((4-carbamoyl-2,6-difluorophenoxy)methyl)-4-chlorobenzo[b]thiophene-2-carboxylate]

- DSF huSTING (WT) ΔTm (° C.) (huSTING (WT) [1]): 10.88 °C
- EC50 (huSTING (HAQ); [4]): 16.2 µM
- EC50 (huSTING (WT) [2]): 17.2 µM
Compound: NC(=O)c1cc(F)c(OCc2c(C(=O)O)sc3cccc(Cl)c23)c(CO)c1 [Example 111, 3-((4-Carbamoyl-2-fluoro-6-(hydroxymethyl)phenoxy)methyl)-4-chlorobenzo[b]thiophene-2-carboxylic acid]

- ΔTm at 100 µM (huSTING (WT) [1]; [3]): -4.22 °C
- EC50 (huSTING (HAQ); 24 h, top concentration 50 μM): 1.05 µM
- EC50 (huSTING (WT) [2]): 2.47 µM
Compound: CC(C)(C)C(=O)OCOC(=O)c1sc2cccc(Cl)c2c1COc1ccc(C(N)=O)cc1 [Example 74, (Pivaloyloxy)methyl 3-((4-carbamoylphenoxy)methyl)-4-chlorobenzo[b]thiophene-2-carboxylate]

- DSF huSTING (WT) ΔTm (° C.) (huSTING (WT) [1]): −1.05 °C
- EC50 (huSTING (HAQ); [4]): 0.035 µM
- EC50 (huSTING (WT) [2]): 0.298 µM
Compound: COC(=O)NCCOC(=O)c1sc2cccc(Cl)c2c1COc1c(F)cc(C(N)=O)cc1F [Example 160, 2-((Methoxycarbonyl)amino)ethyl 3-((4-carbamoyl-2,6-difluorophenoxy)methyl)-4-chlorobenzo[b]thiophene-2-carboxylate]

- DSF huSTING (WT) ΔTm (° C.) (huSTING (WT) [1]): −1.76 °C
- EC50 (huSTING (HAQ); [4]): 0.062 µM
- EC50 (huSTING (WT) [2]): 0.669 µM
Compound: COC(=O)N(C)CCOC(=O)c1sc2cccc(Cl)c2c1COc1c(F)cc(C(N)=O)cc1F [Example 161, 2-((Methoxycarbonyl)(methyl)amino)ethyl 3-((4-carbamoyl-2,6-difluorophenoxy)methyl)-4-chlorobenzo[b]thiophene-2-carboxylate]

- EC50 (huSTING (HAQ); [4]): 0.086 µM
- EC50 (huSTING (WT) [2]): 0.529 µM
Compound: CCC(=O)OC(OC(=O)c1sc2cccc(Cl)c2c1COc1c(F)cc(C(N)=O)cc1F)C(C)C (centres unmarked) [Example 125, 2-Methyl-1-(propionyloxy)propyl 3-((4-carbamoyl-2,6-difluorophenoxy)methyl)-4-chlorobenzo[b]thiophene-2-carboxylate]

- EC50 (huSTING (HAQ); 24 h, top concentration 50 μM): 1.6 µM
- EC50 (huSTING (WT) [2]): 1.42 µM
Compound: CCOC(=O)c1sc2cccc(Cl)c2c1COc1ccc(C(N)=O)c(F)c1 [Example 25, Ethyl 3-((4-carbamoyl-3-fluorophenoxy)methyl)-4-chlorobenzo[b]thiophene-2-carboxylate]

- EC50 (huSTING (HAQ); 24 h, top concentration 50 μM): 12.9 µM
- EC50 (huSTING (WT) [2]): 24.7 µM
Compound: CCOC(=O)c1sc2cccc(Cl)c2c1COc1ccc(C(N)=O)nc1 [Example 45, Ethyl 3-(((6-carbamoylpyridin-3-yl)oxy)methyl)-4-chlorobenzo[b]thiophene-2-carboxylate]

- EC50 (huSTING (HAQ); [4]): 0.053 µM
- EC50 (huSTING (WT) [2]): 0.377 µM
Compound: CCOC(=O)c1sc2ccnc(OC)c2c1COc1c(F)cc(C(N)=O)cc1F [Example 102, Ethyl 3-((4-carbamoyl-2,6-difluorophenoxy)methyl)-4-methoxythieno[3,2-c]pyridine-2-carboxylate]

- EC50 (huSTING (HAQ); [4]): 0.05 µM
- EC50 (huSTING (WT) [2]): 0.163 µM
Compound: CCOC(=O)c1sc2c(F)ccc(Cl)c2c1COc1c(F)cc(C(N)=O)cc1F [Example 92, Ethyl 3-((4-carbamoyl-2,6-difluorophenoxy)methyl)-4-chloro-7-fluorobenzo[b]thiophene-2-carboxylate]

- EC50 (huSTING (HAQ); [4]): 0.39 µM
- EC50 (huSTING (WT) [2]): 1.69 µM
Compound: CCOC(=O)c1sc2cccc(OCC)c2c1COc1c(F)cc(C(N)=O)cc1F [Example 94, Ethyl 3-((4-carbamoyl-2,6-difluorophenoxy)methyl)-4-ethoxybenzo[b]thiophene-2-carboxylate]

- EC50 (huSTING (HAQ); 24 h, top concentration 50 μM): > 50 µM
- EC50 (huSTING (WT) [2]): > 50 µM
Compound: CCOC(=O)c1sc2cccc(F)c2c1COc1ccc(C(N)=O)c(C(F)(F)F)c1 [Example 51, Ethyl 3-((4-carbamoyl-3-(trifluoromethyl)phenoxy)methyl)-4-fluorobenzo[b]thiophene-2-carboxylate]

- EC50 (huSTING (HAQ); [4]): 0.373 µM
- EC50 (huSTING (WT) [2]): 2.03 µM
Compound: COc1cccc2sc(C(=O)OCCN3CCOCC3)c(COc3ccc(C(N)=O)cc3)c12 [Example 157, 2-Morpholinoethyl 3-((4-carbamoylphenoxy)methyl)-4-methoxybenzo[b]thiophene-2-carboxylate]

- EC50 (huSTING (HAQ); [4]): 0.278 µM
- EC50 (huSTING (WT) [2]): 1.43 µM
Compound: CC(C)(C)C(=O)OCOC(=O)c1sc2cccc(C3CC3)c2c1COc1c(F)cc(C(N)=O)cc1F [Example 124, (Pivaloyloxy)methyl 3-((4-carbamoyl-2,6-difluorophenoxy)methyl)-4-cyclopropylbenzo[b]thiophene-2-carboxylate]
